Tests used:
[1] = system: GluA1 surface expression in cultured hippocampal neurons; assay: Surface labelling of AMPA receptor subunit GluA1 (immunocytochemistry); assay type: cell-based, Sprague Dawley rats; details: for GluA1 surface expression, hexamer study: 10 nM, 15 min
[2] = system: differentiated human neural cells (SH-SY5Y); assay: LDH release assay (membrane leakage, cell death); assay type: cell-based; details: 10 μM Aβ1-42; for reduction of LDH release compared with Aβ1-42 alone, hexamer study: 10 nM, n=11
Description: (§1) The human neuroblastoma cell line, SH-SY5Y (ECACC, UK) was maintained in Dulbecco's Modified Eagle Medium supplemented with glucose ([…]) and 10% (v/v) cosmic calf serum (Fisher Scientific, UK) at 37° C. in a humidified atmosphere of 5% CO2, 95% air and allowed to reach 70-80% confluence before seeding. Cells (passage 10-18) were plated at 10 000 cells per well in 96 well tissue culture plates (Nunc, VWR, UK) and at a density of 2×10^5 cells in 35 mm dishes for protein extraction. To induce differentiation, cells were cultured in DMEM supplemented with glucose ([…]), 1% (v/v) cosmic calf serum and 10 μM retinoic acid for 5 days. Thereafter they were incubated in DMEM supplemented with glucose ([…]), serum replacement 2 (2%; Sigma, UK) and 18 μM 5-fluorodeoxyuridine to inhibit proliferation of undifferentiated cells. The 50% of the medium was changed every 2-3 days and pharmacological treatment was carried out 7 days after switching to this medium. Reagents used were (from Sigma UK unless stated) 0.1-10 nM human leptin and leptin (116-130); 0.1-10 nM leptin (22-56; Bachem; Switzerland); 10 nM leptin (116-121) leptin (117-122), leptin (124-129) or leptin (125-130; all Severn Biotech, UK); 5 μM copper chloride; […], 5 μM WP1066 or 50 nM wortmannin. All treatments were added to the culture at the same time and survival assays were carried out after 96 h treatment. Protein samples for signaling ELISA were extracted 3 h after exposure to the relevant reagents and for biomarker expression after 72 hours.
(§2) The concentration of lactate dehydrogenase (LDH) in the culture medium or the mitochondrial activity within cells was used to monitor the level of cell death, as previously (Oldreive and Doherty 2010). In certain experiments, a Crystal violet assay was used to assess total cell number. Cells were fixed in neutral buffered formalin and washed 3 times in PBS prior to staining with 0.01% crystal violet acetate for 5 min. Plates were washed 5-10 times in dH2O and cells solubilised in 100 μl dimethyl sulfoxide (DMSO) before reading the absorbance on a Biohit BP100 plate reader. For all assays, data is expressed as percentage relative to control, untreated wells to normalize for differences in plating density between individual experiments.
To determine whether leptin (116-130) has neuroprotective actions, the effects of leptin (116-130) on the viability of differentiated human neural cells (SH-SY5Y) was examined after exposure to either 5 μM CuCl2 or 10 μM Aβ1-42. Cells were treated with the toxin alone or with a range of concentrations (10-0.1 nM) of leptin or leptin (116-130). […] Thus like leptin, treatment with leptin (116-130) reduces neuronal death in response to AD-linked toxins in vitro.

[3] = system: phosphorylated tau (p-tau); assay: ELISA of phosphorylated tau relative to α-tubulin; assay type: cell-based, human; details: 10 nM; n=5
Description: as §1
Protein from cultures was extracted into 500 μl Tris-buffered saline containing protease inhibitor cocktail, and a Bradford assay used to determine protein concentration. Samples were diluted to give equal loading onto ELISA plates. Commercially available ELISA kits were used in accordance with the manufacturer's instructions to determine the ratio of pan-STAT3 to phospho-STAT3 (Sigma, UK) and pan-Akt to phospho-Akt (Sigma, UK) and the levels of alpha-tubulin and phosphorylated tau (Sigma, UK). Each protein sample was run in duplicate using samples derived from at least 5 biological repeats.
Hyper-phosphorylation of tau is the underpinning mechanism of the development of neurofibrillary tangles—one of the key pathological feature of AD. Human SH-SY5Y neuronal cells were exposed to Aβ1-42 alone or in combination with 10 nM leptin, leptin (116-130), leptin (116-121), leptin (117-122), leptin (124-129) or leptin (125-130). Protein was extracted for ELISA assay and the ratio of p-tau to the house-keeping protein α-tubulin determined (FIG. 11C). […] Thus for Aβ1-42-treated cells, 10 nM leptin and 10 nM leptin (116-130) reduced p-tau expression by 56.2±8.0% and 58.9+4.6% respectively compared with Aβ1-42 alone (n=5; P<0.001; FIG. 11C); an effect that was mirrored by 10 nM leptin (116-121) and leptin (117-122); 58.1±4.0% and 45.48±6.1% (n=5; P<0.001 and P<0.01 respectively; FIG. 11C), but not by 10 nM leptin (124-129) or leptin (125-130)(n=5; P>0.5; FIG. 11C).

[4] = system: acute hippocampal slices; assay: HFS-induced LTP with leptin hexamers; assay type: cell-based, Sprague Dawley rats; details: 10 nM for 50 min prior to HFS; control LTP 117±10.8% / 125±4.9%
Description: Parasagittal hippocampal slices (300 μm) were prepared from either P13-21 or 12-24-week-old male Sprague Dawley rats as previously (Moult et al. 2010). Brains were rapidly removed and placed in ice-cold artificial CSF (aCSF; bubbled with 95% O2 and 5% CO2) containing the following (in mm): 124 NaCl, 3 KCl, 26 NaHCO3, 1.25 NaH2PO4, 2 CaCl2, 1 MgSO4, and 10 d-glucose. Once prepared, parasagittal slices were allowed to recover at room temperature in oxygenated aCSF for 1 h before use. Slices were transferred to a submerged chamber maintained at room temperature and perfused with artificial cerebrospinal fluid at 2 ml min^−1. Standard extracellular recordings were used to monitor evoked field excitatory postsynaptic potentials (fEPSP) from stratum radiatum. The Schaffer collateral-commissural pathway was stimulated (constant voltage; 0.1 ms) at 0.033 Hz, using a stimulus intensity that evoked a peak amplitude ˜50% of the maximum. Synaptic potentials were low pass filtered at 2 kHz and digitally sampled at 10 kHz. The fEPSP slope was measured and expressed relative to baseline. Synaptic records are the average of 4 consecutive responses and stimulus artefacts are blanked for clarity. Recordings were made using an Axopatch 200B amplifier and analyzed using LTP v2.4 software. In synaptic plasticity studies, the degree of potentiation was calculated 30-35 min after HFS and expressed as a percentage of baseline±standard error of mean (SEM).
To determine if the leptin hexamers influence the magnitude of activity-dependent synaptic plasticity, standard extracellular recording techniques were used to assess the effects of leptin (116-121, 117-122, 118-123, 120-125, 124-129 and 125-130) on the magnitude of LTP induced by high frequency stimulation (100 Hz, 1 s) in acute hippocampal slices. […] In parallel studies, application of leptin (118-123; 158±3.8%; n=7; p<0.05; FIG. 8) or leptin (120-125; to 163±8.8% of baseline; n=5; p<0.05) also facilitated LTP, compared to control LTP (FIG. 8).

[5] = system: differentiated SH-SY5Y human neuronal cells; assay: MTT assay of mitochondrial activity (cell viability); assay type: cell-based; details: 10 nM; n=11
Description: as §1, §2
To confirm the findings of the LDH assay, cells were treated with Aβ1-42 alone or with a 10 nM of leptin, leptin (116-130) or the listed hexamers, and mitochondrial activity, as a measure of cell viability, determined by MTT assay. A significant increase in mitochondrial activity was detected following treatment with either leptin or leptin (116-130; both 10 nM). […] Thus for Aβ1-42-treated cells, 10 nM leptin and 10 nM leptin (116-130) increased mitochondrial activity by 32.6±5.2% and 40.9+5.8% respectively compared with Aβ1-42 alone (n=11; P<0.001; FIG. 11B); an effect that was mirrored by 10 nM leptin (116-121) and leptin (117-122); 43.61±3.9% and 40.5±3.7*% (n=11; P<0.001; FIG. 11B), but not by 10 nM leptin (124-129) or leptin (125-130) (n=11; P>0.5; FIG. 11B). This reinforces the findings from the LDH assay that similar to either leptin or leptin (116-130), treatment with leptin (116-121) or leptin (117-122) reduces neuronal death in response to AD-linked toxins in vitro.

[6] = system: tau in hippocampal neurons; assay: Immunocytochemistry of endogenous tau and tau/PSD-95 co-localization; assay type: cell-based, Sprague-Dawley rats; details: Aβ1-42 1 μM plus leptin/fragment 10 nM or SB216763 100 nM
Description: Hippocampal cultures were prepared as previously (Moult et al, 2010). Neonatal Sprague-Dawley rats (1-3 d old) were […] killed by cervical dislocation in accordance with the UK Animals (Scientific Procedures Act) 1986 legislation. Hippocampi were removed, and after washing in HEPES-buffered saline comprising (mM) 135 NaCl; 5 KCl; 1 CaCl2; 1 MgCl2; 10 HEPES; and 25 D-glucose at […], were treated with papain (1.5 mg ml21; Sigma-Aldrich) for 20 min at 37° C. Dissociated cells were plated onto sterile dishes (35 mm diameter; Greiner Bio-One, Kremsmun-ster, Austria) treated with poly-D-lysine (20 μg ml^−1; 1-2 h). Cultures were maintained in serum replacement medium (SR2; Sigma-Aldrich) in a humidified atmosphere of 5% CO2 and […] at 37° C. for up to 2 wk.
Immunocytochemistry was conducted on primary hippocampal cultures (7-14 DIV). Prior to labelling with antibodies, neurons were washed with HBS containing glycine (0.01 mM) and incubated with agents for 1 h at room temperature. Cultures were fixed with 4% paraformaldehyde for 5 min, then permeabilized with 0.1% Triton X-100 for 5 min. To label endogenous tau, neurons were incubated with a rabbit anti-tau (Ab-217; Genscript) primary antibody (1:200 dilution) at room temperature for 30 min, followed by incubation with an Alexa Fluor555 donkey anti-rabbit (1:250, Invitrogen) secondary antibody for an additional 30 min duration. To assess the % co-localisation of tau at synapses, neurons were dual labelled with an antibody against the synaptic marker, PSD-95 (mouse anti-PSD-95; 1:500, Thermo Fisher) followed by application of an Alexa Fluor488 goat anti-mouse secondary antibody (1:500, Invitrogen).
A Zeiss LSM510 confocal microscope was used for image acquisition and analysis. Images were obtained using a 10-s scan speed in single tracking mode or multi-tracking mode for dual labelling experiments. The intensity of immunostaining was measured off-line using Lasersharp software (Zeiss Lasersharp), whereby analysis lines of 50 μm length were drawn along randomly selected dendritic regions. All data were obtained from at least three different cultures from different animals. Imaging conditions including illumination intensity and photomultiplier gains were kept constant between treatments for each experiment. In addition, data were normalised relative to the mean fluorescence intensity obtained from control neurons. For synaptic co-localisation experiments, tau and PSD-95 positive immunostaining were compared. The number of tau-positive sites that co-localized with PSD-95 positive sites were counted and expressed as a percentage of total positive sites (peaks of intensity).

Molecule | GluA1 surface expression, hexamer study [1] | magnitude of LTP after HFS (100 Hz, 1 s) [4] | further results
leptin (122-128): leptin fragment amino acids 122-128 (ASGLETL; UniProt P41159 122-128, looked up, fragment) | failed to significantly alter the surface expression of GluA1 |  | 
LQKPES (SCHLPWASGL; listed as Homo sapiens) [leptin (125-130)] | 98±5 % of control | 137±2.4 % of baseline | reduction of LDH release compared with Aβ1-42 alone, hexamer study [2]: did not; reduction of p-tau expression compared with Aβ1-42 alone [3]: did not; increase in mitochondrial activity compared with Aβ1-42 alone [5]: did not
C[C@H](NC(=O)/C(C#N)=C/c1cccc(Br)n1)c1ccccc1 [WP1066, reference compound] |  |  | effect of inhibitor on leptin (116-130)-mediated neuroprotection (LDH) ([2]; WP1066 5 μM, wortmannin 50 nM): prevented leptin (116-130)-mediated neuroprotection
PQTSGL (listed as Mus musculus) [leptin (120-125)] | increased the surface expression of GluA1 | 163±8.8 % of baseline | 
SLPQTS (listed as Mus musculus) [leptin (118-123)] | increased the surface expression of GluA1 | 158±3.8 % of baseline | 
GLQKPE (listed as Mus musculus) [leptin (124-129)] | 89±6 % of control | 137±5.6 % of baseline | reduction of LDH release compared with Aβ1-42 alone, hexamer study [2]: did not; reduction of p-tau expression compared with Aβ1-42 alone [3]: did not; increase in mitochondrial activity compared with Aβ1-42 alone [5]: did not
Cn1cc(C2=C(c3ccc(Cl)cc3Cl)C(=O)NC2=O)c2ccccc21 [SB216763, reference compound] |  |  | % co-localization of tau and PSD-95 in Aβ1-42-treated neurons [6]: decreased % tau/PSD-95 co-localization; relative tau intensity in Aβ1-42-treated neurons [6]: mirrors the effects of leptin
bisperoxovanadium [bpV, reference compound] |  |  | GluA1 surface expression, agent alone (PTEN study) ([1]; bpV 50 nM, 30 min): 148±8 % of control
leptin (121-126): leptin fragment amino acids 121-126 (WASGLE; UniProt P41159 121-126, looked up, fragment) | failed to significantly alter the surface expression of GluA1 |  | 
